Assay [1] has as its target T1, human orexin 2 receptors (Homo sapiens, UniProt O43614).
T1 sequence (O43614 1-444): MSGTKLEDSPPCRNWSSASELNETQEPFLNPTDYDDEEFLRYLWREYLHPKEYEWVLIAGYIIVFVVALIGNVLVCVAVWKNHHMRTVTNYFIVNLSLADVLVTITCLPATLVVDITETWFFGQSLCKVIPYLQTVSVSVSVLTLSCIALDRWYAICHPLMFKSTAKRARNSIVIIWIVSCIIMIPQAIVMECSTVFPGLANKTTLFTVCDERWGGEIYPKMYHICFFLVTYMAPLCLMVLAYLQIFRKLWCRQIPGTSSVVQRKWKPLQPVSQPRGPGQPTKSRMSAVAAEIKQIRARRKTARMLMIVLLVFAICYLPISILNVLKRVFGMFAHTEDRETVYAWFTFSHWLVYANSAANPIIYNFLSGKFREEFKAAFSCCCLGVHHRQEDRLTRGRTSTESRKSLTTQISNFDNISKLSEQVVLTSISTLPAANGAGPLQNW
In words: Radioligand binding assay ([3H]-SB649868 competition), hOx2R. As to conditions: competition with about 1 nM [3H]-SB649868; CHO or HEK cell membranes expressing human orexin 2 receptor; read-out: binding hOx2R Kd. On the procedure:
(§1) The cell pellet was either stored at −80° C. or used directly. Before the experiments, cell membranes were re-suspended in binding assay buffer (10 mM HEPES, 0.5% (w/v) bovine serum albumin, pH 7.5) by homogenisation with a Polytron homogeniser at 50 Hz for 20 s. Cell membranes were also used as made available by commercial providers.
(§2) Bound radioactivity was measured, and data were analysed with the program XLFIT or Graphpad Prism. Protein concentration was determined according to the Bradford/BioRad Protein Assay Kit.
(§3) In competition experiments, cell homogenates (150 μl) were incubated in assay buffer (10 mM HEPES, pH 7.5, 0.5% (w/v) bovine serum albumin, 5 mM MgCl2, 1 mMCaCl2, and tween 0.05%) for 1 h at room temperature with about 1 nM of the radioligand [^3H]-SB649868, 66 Ci/mmole, 50 μl), and with various concentrations of compounds of the invention (50 μl) in triplicates; non-specific binding was determined in the presence of almorexant (10 μM).

For assay [2], the target named is T2, human orexin 1 receptors (Homo sapiens, UniProt O43613).
T2 sequence (O43613 1-425): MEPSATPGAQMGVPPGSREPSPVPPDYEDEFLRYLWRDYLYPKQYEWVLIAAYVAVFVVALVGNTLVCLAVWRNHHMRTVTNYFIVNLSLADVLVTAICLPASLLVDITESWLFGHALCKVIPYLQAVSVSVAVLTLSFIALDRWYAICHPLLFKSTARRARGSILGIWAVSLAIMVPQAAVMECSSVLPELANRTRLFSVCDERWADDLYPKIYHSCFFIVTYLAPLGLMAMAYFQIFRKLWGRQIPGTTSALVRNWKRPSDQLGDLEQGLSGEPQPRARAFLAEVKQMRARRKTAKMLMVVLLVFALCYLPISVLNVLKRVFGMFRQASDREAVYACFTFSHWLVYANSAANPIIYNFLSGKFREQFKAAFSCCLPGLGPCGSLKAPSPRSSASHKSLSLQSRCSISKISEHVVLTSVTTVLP
In words: Radioligand binding assay ([3H]-SB649868 competition), hOx1R. As to conditions: competition with about 1 nM [3H]-SB649868; CHO or HEK cell membranes expressing human orexin 1 receptor. On the procedure:
as §1, §2
as §3, with “μM). Reactions were terminated by vacuum filtration, 3 washes of ice cold wash buffer (Tris-HCl pH 7.4/10 mM, with NaCl 154 mM). Competition data is expressed in Table 2 as Kd [μM].” for “μM).”

For assay [3], the target named is T2, human orexin 1 receptors. Description: Calcium accumulation in cells (FLIPR), hOx1R. As to conditions: for inhibition at 10 µM: read-out: FLIPR hOx1R % inhibition value.
Assay [4] concerns the target T1, human orexin 2 receptors. Description: Calcium accumulation in cells (FLIPR), hOx2R. The conditions noted are these: cells expressing human orexin 2 receptor; inhibition of orexin A-induced calcium accumulation; Cheng and Prusoff correction. Type of assay: cell-based.
Experimental: Cells expressing human orexin 1 or human orexin 2 receptors, were seeded at 8,000 cells/well in 384 well black-walled clear bottom, poly-D-lysine coated plates. After 24 h, the medium was removed and cells were washed once with phosphate buffered saline and serum-deprived overnight in assay buffer (130 mM NaCl, 5.4 mM KCl, 1.8 mM CaCl2, 0.8 mM MgSO4, 0.9 mM NaH2PO4, 25 mM glucose, 20 mM HEPES, pH 7.4) containing bovine serum albumin (1% w/v).
On the day of the experiment, the cells seeded in black plates were treated with assay buffer containing the Ca^2+sensitive fluorescent dye Fluo-4-AM (2 μM), and probenecid (0.1 mM). After 1 h plates were washed twice with, and resuspended in, assay buffer containing probenecid (0.1 mM) using a multi plate washer. […] Fluorescence measurements were then continued every 1 S for 120 S followed by every 4 S for 240 S.
The measurements were typically made in two sequences:
Compounds of formula I were tested usually in a concentration range from 10^−9 M to 10^−5 M. In the second round, performed one hour later (to allow for equilibration), Orexin A was tested either in the absence (calibration curves, Orexin A agonist controls) or in the presence of compounds of formula I to determine antagonism.

This passage reports Kd, inhibition and Ki results from patent publication US20120101110A1, “Diaza-spiro[5.5]undecanes” (priority 2010, published 2012).

For orientation: Kd means the free concentration of one partner at which half of the binding sites on the other are occupied at equilibrium, for simple one-to-one binding. Usually inhibition stands for the share of the control response that was lost under treatment. A word on the Ki: it is the equilibrium dissociation constant of an inhibitor or competing ligand from its target.

Each structure is given as a SMILES string.

Turning to `Cc1cc(C)nc(N2CCC3(CCCN(Cc4ccccc4-c4nc(C)no4)C3=O)CC2)n1` [Example 1, 9-(4,6-dimethylpyrimidin-2-yl)-2-(2-(3-methyl-1,2,4-oxadiazol-5-yl)benzyl)-2,9-diazaspiro[5.5]undecan-1-one], the dissociation constant (Kd) in assay [1] was determined as 66 nM; in assay [2], 2020 nM.
In the case of `Cc1cc(C)nc(N2CCC3(CCCN(Cc4ccccc4-n4nccn4)C3=O)CC2)n1` [Example 2, 2-(2-(2H-1,2,3-triazol-2-yl)benzyl)-9-(4,6-dimethylpyrimidin-2-yl)-2,9-diazaspiro[5.5]undecan-1-one], the Kd in assay [1] is 259 nM; in assay [2], greater than 10000 nM. Further, the inhibition at 10 µM in assay [3] stood at 22%. The Ki in assay [4] stood at 86 nM.
For the compound `Cc1cc(C)nc(N2CCC3(CCCC(=O)N3Cc3cccc4[nH]ccc34)CC2)n1` [Example 3, 1-((1H-indol-4-yl)methyl)-9-(4,6-dimethylpyrimidin-2-yl)-1,9-diazaspiro[5.5]undecan-2-one], the Kd in assay [1] came out at 12 nM; in assay [2], 483 nM. Besides, the Ki in assay [3] was 381 nM; in assay [4] it was 0.9 nM.
For `COc1cc(C)nc(N2CCC3(CCCN(Cc4c[nH]c5ccccc45)C3=O)CC2)n1` [Example 4, 2-((1H-indol-3-yl)methyl)-9-(4-methoxy-6-methylpyrimidin-2-yl)-2,9-diazaspiro[5.5]undecan-1-one], in that order: 43 nM, 863 nM, 135 nM and 2.2 nM.
In the same order, the values of `Cc1cc(C)nc(N2CCC3(CCCN(Cc4c[nH]c5ccccc45)C3=O)CC2)n1` [Example 5, 2-((1H-indol-3-yl)methyl)-9-(4,6-dimethylpyrimidin-2-yl)-2,9-diazaspiro[5.5]undecan-1-one] are 35 nM, 966 nM, 870 nM and 10 nM.
For `Cc1cc(C)nc(N2CCC3(CCCN(Cc4cn(C)c5ccccc45)C3=O)CC2)n1` [Example 6, 9-(4,6-dimethylpyrimidin-2-yl)-2-((1-methyl-1H-indol-3-yl)methyl)-2,9-diazaspiro[5.5]undecan-1-one], in that order: 153 nM, 4540 nM, 1530 nM and 26 nM.
With `COc1ccnc(N2CCC3(CCCN(Cc4c[nH]c5ccccc45)C3=O)CC2)n1` [Example 13, 2-((1H-indol-3-yl)methyl)-9-(4-methoxypyrimidin-2-yl)-2,9-diazaspiro[5.5]undecan-1-one], the dissociation constant Kd in assay [1] came to 74 nM; in assay [2], 924 nM. Moreover, the Ki in assay [3] was 527 nM.
For `COC(=O)c1ccc2[nH]cc(CN3CCCC4(CCN(c5nc(C)cc(C)n5)CC4)C3=O)c2c1` [Example 115, Methyl 3-((9-(4,6-dimethylpyrimidin-2-yl)-1-oxo-2,9-diazaspiro[5.5]undecan-2-yl)methyl)-1H-indole-5-carboxylate], the dissociation constant Kd in assay [1] was 3 nM; in assay [2], 52 nM.
Regarding `COCc1cccc(CN2CCCC3(CCN(c4nc(C)cc(C)n4)CC3)C2=O)c1` [Example 125, 9-(4,6-dimethylpyrimidin-2-yl)-2-(3-(methoxymethyl)benzyl)-2,9-diazaspiro[5.5]undecan-1-one], the inhibition at 10 µM in assay [3] worked out at 22%. Moreover, the inhibition constant (Ki) in assay [4] came out at 177 nM.
As for `COCc1ccccc1CN1CCCC2(CCN(c3nc(C)cc(C)n3)CC2)C1=O` [Example 126, 9-(4,6-dimethylpyrimidin-2-yl)-2-(2-(methoxymethyl)benzyl)-2,9-diazaspiro[5.5]undecan-1-one], the inhibition at 10 µM in assay [3] came to 31%. In addition, the inhibition constant (Ki) in assay [4] amounted to 140 nM.
For the compound `COCc1cccc(CN2CCCC3(CCN(c4nc(C)cc(OC)n4)CC3)C2=O)c1` [Example 127, 9-(4-methoxy-6-methylpyrimidin-2-yl)-2-(3-(methoxymethyl)benzyl)-2,9-diazaspiro[5.5]undecan-1-one], the inhibition constant Ki was found to be 2110 nM in assay [3] and 100 nM in assay [4].
